The test system of one series is smooth muscle cell. To be noted: after serum stimulation; cited from earlier work.
Series [1] deals with T1, adenosine 2B receptor (A2BR) (Homo sapiens, UniProt P29275).
T1 sequence (P29275 1-332): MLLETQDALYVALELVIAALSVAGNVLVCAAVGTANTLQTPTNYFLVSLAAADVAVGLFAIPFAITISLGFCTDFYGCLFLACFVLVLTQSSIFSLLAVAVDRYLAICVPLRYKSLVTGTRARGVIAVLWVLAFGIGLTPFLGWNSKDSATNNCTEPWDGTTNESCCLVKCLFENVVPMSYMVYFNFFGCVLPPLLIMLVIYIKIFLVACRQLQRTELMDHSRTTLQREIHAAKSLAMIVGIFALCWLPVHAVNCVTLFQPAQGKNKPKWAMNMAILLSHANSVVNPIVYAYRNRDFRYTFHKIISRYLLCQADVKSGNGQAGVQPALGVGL
Nature of the series: cAMP accumulation in response to receptor agonist (cAMP radioimmunoassay) in Ctrl-PASMCs. Format: cell-based. To be noted: agonist 1 μM, 10 min treatment. Background: cAMP levels reflect the balance of adenylyl cyclase and phosphodiesterase activity.
Protocol: (§1) Control-PASMCs, PAH-PASMCs or HEK 293 cells were seeded at 30,000 cells/well in a 24-well plate. […] 10 uM FSK (alone) was used as a positive control. After the incubations, the media was aspirated and 150 μL of 7.5% trichloroacetic acid (TCA) was added to each well.
(§2) Assay tubes were filled with 1 mL of 10 mM sodium acetate buffer (pH 4.75) and a standard curve was constructed by serial dilution of stock 5 μM cAMP (Millipore, Billerica, Mass.). An appropriate amount of sample was added to the assay tubes and the samples were acetylated by addition of 20 μL triethylamine (Sigma) and 10 μl acetic anhydride (Sigma). 100 μL of the sodium acetate buffer was added to each well of a 96-well filter plate to prepare the plate and then was removed by vacuum. 50 μL of diluted, acetylated sample was added to each well along with 25 μL diluted antibody [1:1000, 6 μL primary cAMP antibody (Millipore) in 6 mL γ-globulin buffer (100 mg human γ-globulin/100 mL 50 mM NaAc pH 4.75)] and 25 μL diluted ^125I radioactivity [16 acetylated adenosine 3′,5′-cyclic phosphoric acid, 2′-O-succinyl [^125I]-iodotyrosine methyl ester (PerkinElmer) in 3 mL γ-globulin buffer so that 0.001 mCi of ^125I could be added to each sample. The 96-well filter plate containing the sample was incubated overnight at 4° C. […]

The test system of series [2] is Adult Sprague-Dawley rats. As to the kind of experiment: monocrotaline-treated rat model, right ventricular hypertrophy (Fulton Index). To be noted: MCT 60 mg/kg once intraperitoneally, 2 weeks, control rats 0.20. The procedure:
Adult Sprague-Dawley rats (250-300 g, male) were injected once intraperitoneally with MCT (60 mg/kg) and sacrificed 2 weeks later. Right ventricular hypertrophy was assessed to determine the development of PAH. It was evaluated as the ratio of the weight of the right ventricle to that of the left ventricle plus the septum (Fulton Index). […] This model is commonly used and approved as a valid model of PAH.^42,43 All animals were cared for in compliance with the guiding principles and approved by the UCSD Institutional Animal Care and Use Committee.

The subject of a further series is GPR75. Conditions: cited from earlier work.
The target in series [3] is prostaglandin E2 receptor (EP2R) (Homo sapiens, UniProt P43116). As to the kind of experiment: cAMP accumulation in response to receptor agonist (cAMP radioimmunoassay) in Ctrl-PASMCs. To be noted: agonist 1 μM, 10 min treatment.
Protocol: as §1, §2
The target in series [4] is prostacyclin receptor (IPR) (Homo sapiens, UniProt P43119). The series is described as above. Format: cell-based. To be noted: agonist 10 μM, 10 min treatment.
Protocol: as §1, §2
In the next series the target is T2, oxytocin receptor (Homo sapiens, UniProt P30559).
T2 construct: the oxytocin receptor is expressed on the membrane of Ctrl-PASMCs; endogenous in cells; host or cells: Ctrl-PASMCs (primary human pulmonary artery smooth muscle cells)
T2 sequence (P30559 1-389): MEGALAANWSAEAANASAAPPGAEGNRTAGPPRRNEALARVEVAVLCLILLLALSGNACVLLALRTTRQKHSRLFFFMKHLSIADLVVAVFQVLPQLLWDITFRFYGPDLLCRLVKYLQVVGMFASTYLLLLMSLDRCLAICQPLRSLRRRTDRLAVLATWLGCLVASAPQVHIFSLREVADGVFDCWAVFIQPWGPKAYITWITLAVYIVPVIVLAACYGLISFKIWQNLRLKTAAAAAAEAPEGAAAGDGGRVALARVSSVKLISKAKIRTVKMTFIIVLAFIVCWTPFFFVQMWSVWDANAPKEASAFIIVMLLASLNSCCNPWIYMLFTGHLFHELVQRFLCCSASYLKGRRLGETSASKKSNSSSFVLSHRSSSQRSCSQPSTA
Nature of the series: forskolin-stimulated cAMP levels in Ctrl-PASMCs with oxytocin. It counts as cell-based. To be noted: 0.1 nM-10 μM, 10 min, FIG. 4D.

The conditions of series [5]: oxytocin 0.2 units/kg; cited from earlier work.
The subject of another series is Ctrl-PASMCs. As to the kind of experiment: [3H]thymidine incorporation (DNA synthesis, proliferation) of PASMCs with GPCR agonists. It counts as cell-based, human. The procedure: GPCR agonists/antagonists/GPR75 antibody in the absence or presence of 200 μM IBMX and [^3H] thymidine (1 μCi/ml) were added to the cells for 24-48 hr. Following incubation, cells were washed with a large volume of cold phosphate buffer saline (PBS) and then twice with a large volume of cold 7.5% TCA. The precipitated material was dissolved with 0.5 M NaOH and combined with 3 mL of scintillation fluid (Ecoscint O, National Diagnostics) and radioactivity was determined using a liquid scintillation counter (Beckman Coulter LS 1801).
(Dividing cells build labelled thymidine or BrdU into new DNA.)

Series [6] concerns the target gastric inhibitory polypeptide receptor (human) (UniProt P48546). As to the kind of experiment: cell-based or functional assay.
Series [7] addresses T3, gastric inhibitory polypeptide receptor (GIPR) (Homo sapiens, UniProt P48546).
T3 sequence (P48546 22-466): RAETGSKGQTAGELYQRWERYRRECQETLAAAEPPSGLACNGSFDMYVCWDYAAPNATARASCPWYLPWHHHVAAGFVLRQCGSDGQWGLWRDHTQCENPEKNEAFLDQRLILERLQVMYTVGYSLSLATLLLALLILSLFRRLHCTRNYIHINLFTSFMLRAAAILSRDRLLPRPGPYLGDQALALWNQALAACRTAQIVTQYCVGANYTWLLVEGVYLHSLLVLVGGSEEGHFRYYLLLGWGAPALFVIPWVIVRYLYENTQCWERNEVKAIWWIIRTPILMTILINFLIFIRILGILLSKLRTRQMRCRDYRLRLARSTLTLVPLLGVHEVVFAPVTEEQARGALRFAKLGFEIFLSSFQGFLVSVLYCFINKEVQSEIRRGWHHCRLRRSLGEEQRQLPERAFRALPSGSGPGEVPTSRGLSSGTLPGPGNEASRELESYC
Nature of the series: cAMP accumulation in response to receptor agonist (cAMP radioimmunoassay) in Ctrl-PASMCs. Conditions: agonist 1 μM, 10 min treatment.
Protocol: as §1, §2

The next series has as its system human PASMCs. To be noted: cited from earlier work.
The next series deals with PAH-patients. Conditions: chronic inhalation; n=8 PAH-patients; cited from earlier work.
Series [8] addresses vasoactive intestinal peptide receptor 1 (human) (UniProt P32241). Nature of the series: cell-based or functional assay.
[9] abbreviates: HEK293 cells overexpressing GPR75.

Sequence of vasoactive intestinal peptide receptor 1 (human) (P32241 31-457): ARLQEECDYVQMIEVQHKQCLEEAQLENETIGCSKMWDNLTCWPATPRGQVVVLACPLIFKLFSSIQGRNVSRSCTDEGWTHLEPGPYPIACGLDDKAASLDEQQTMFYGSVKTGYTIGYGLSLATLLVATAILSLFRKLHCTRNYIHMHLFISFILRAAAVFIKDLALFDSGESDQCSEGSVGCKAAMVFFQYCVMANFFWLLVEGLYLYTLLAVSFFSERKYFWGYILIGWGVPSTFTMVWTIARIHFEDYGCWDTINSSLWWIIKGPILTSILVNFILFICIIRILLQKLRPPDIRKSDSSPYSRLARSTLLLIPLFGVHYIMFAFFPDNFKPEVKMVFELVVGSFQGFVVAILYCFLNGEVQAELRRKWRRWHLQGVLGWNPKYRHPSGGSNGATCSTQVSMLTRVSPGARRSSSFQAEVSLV
Sequence of prostacyclin receptor (IPR) (P43119 whole entry): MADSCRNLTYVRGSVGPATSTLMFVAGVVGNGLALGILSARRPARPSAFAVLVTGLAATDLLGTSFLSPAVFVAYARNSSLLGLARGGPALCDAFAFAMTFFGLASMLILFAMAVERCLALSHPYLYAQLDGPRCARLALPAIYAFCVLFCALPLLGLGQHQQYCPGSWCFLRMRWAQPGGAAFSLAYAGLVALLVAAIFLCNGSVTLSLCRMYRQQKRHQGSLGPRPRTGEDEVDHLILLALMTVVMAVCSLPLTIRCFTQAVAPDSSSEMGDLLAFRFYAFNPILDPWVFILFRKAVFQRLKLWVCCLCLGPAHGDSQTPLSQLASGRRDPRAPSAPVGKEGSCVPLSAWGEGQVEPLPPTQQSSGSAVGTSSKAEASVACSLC
Sequence of prostaglandin E2 receptor (EP2R) (P43116 whole entry): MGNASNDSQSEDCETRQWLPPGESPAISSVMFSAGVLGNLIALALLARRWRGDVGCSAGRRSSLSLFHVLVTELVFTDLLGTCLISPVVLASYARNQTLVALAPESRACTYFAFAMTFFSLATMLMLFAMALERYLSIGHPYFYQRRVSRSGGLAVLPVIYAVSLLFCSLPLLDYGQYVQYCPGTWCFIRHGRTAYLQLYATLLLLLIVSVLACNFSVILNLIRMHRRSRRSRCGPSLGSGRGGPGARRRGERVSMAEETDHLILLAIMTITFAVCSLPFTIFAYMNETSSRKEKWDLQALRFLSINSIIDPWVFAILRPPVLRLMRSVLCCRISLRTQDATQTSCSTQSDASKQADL
Protocol for oxytocin receptor: as §1, §2

For the molecule `Nc1ncnc2c1nc(Br)n2[C@@H]1O[C@@H]2COP(=O)(O)O[C@H]2[C@H]1O` [8Br-cAMP], the “percentage of cells in the S phase of the cell cycle” value in the series on smooth muscle cell is given as “reduced”.
In the case of `Nc1nc(Nc2ccccc2)nc2c1ncn2[C@@H]1O[C@H](CO)[C@@H](O)[C@H]1O` [CV1808], the cAMP accumulation in series [1] was determined as 0.6 fmol cAMP/cell/10 min.
In the case of `C[C@H]1C(=O)O[C@@H]2CCN3CC=C(COC(=O)[C@](C)(O)[C@]1(C)O)[C@H]23` [MCT, Monocrotaline], the “Fulton Index (weight of right ventricle / left ventricle plus septum)” value in [2] was found to be 0.34.
Regarding `COc1ccc2c(c1)CC[C@@H]1[C@@H]2CC[C@]2(C)[C@@H](NCCCCCCN3C(=O)C=CC3=O)CC[C@@H]12` [U73122], the “RANTES-mediated increase in Ca2+ mobilization” value in the series on GPR75 (GPR75-HEK293 cells, PLC inhibitor) is “block”.
For `CCCC1([C@H](O)C/C=C/[C@H]2[C@H](O)CC(=O)[C@@H]2CCCCCCC(=O)OC)CCC1` [butaprost], the cAMP accumulation in [3] stood at 0.4 fmol cAMP/cell/10 min.
Molecule `CCCCC[C@H](O)/C=C/[C@@H]1[C@H]2C/C(=C/CCCC(=O)O)O[C@H]2C[C@H]1O` [epoprostenol] registered a cAMP accumulation in series [4] of 0.4 fmol cAMP/cell/10 min.
As to `CC[C@H](C)[C@@H]1NC(=O)[C@H](Cc2ccc(O)cc2)NC(=O)[C@@H](N)CSSC[C@@H](C(=O)N2CCC[C@H]2C(=O)N[C@@H](CC(C)C)C(=O)NCC(N)=O)NC(=O)[C@H](CC(N)=O)NC(=O)[C@H](CCC(N)=O)NC1=O` [oxytocin], the “cAMP accumulation (forskolin-stimulated)” value on oxytocin receptor is “decreased cAMP accumulation”. In [5], the “mean PAP” value is “increases” and the “pulmonary vascular resistance (PVR)” value is “increases”. For the same molecule, in the series on Ctrl-PASMCs (0.1 nM-10 μM, cells in serum free media over 24 hr, FIG. 4D), the PASMC proliferation entry is on record as “promoted PASMC proliferation”.
Consider “GIP (from UniProt P09681 52-93) (peptide)”, for which, in series [6], the cAMP accumulation (fmol cAMP/cell/10 min treatment with agonist) in Ctrl-PASMCs at 1 µM GIP (fmol cAMP/cell/10 min) came to 0.2.
In series [7], “GIP: receptor agonist used for the gastric inhibitory polypeptide receptor (GIPR)” had a cAMP accumulation of 0.2 fmol cAMP/cell/10 min.
On to Neuropeptide Y, for which, in the series with human PASMCs, the “proliferation of human PASMCs” value is on record as “stimulates proliferation”.
Regarding Vasoactive Intestinal Peptide [VIP], in the series with PAH-patients, the exercise capacity result is given as “improve” and the hemodynamics entry is listed as “improve”. Further, the “decrease of PASMC proliferation” value in the series on Ctrl-PASMCs (0.1 nM-10 μM VIP, FIG. 4C) is “roughly 50%”.
In series [8], “vasoactive intestinal peptide (from UniProt P01282 125-152)” returned a cAMP accumulation (fmol cAMP/cell/10 min treatment with agonist) in Ctrl-PASMCs at 1 µM VIP (fmol cAMP/cell/10 min) of 0.2 and a decrease in proliferation of PASMCs (0.1 nM-10 µM VIP) of 50%.

B1: RANTES: Regulated upon Activation, Normal T-cell Expressed, and Secreted chemokine; proposed ligand for GPR75 (protein, UniProt P13501 24-91, looked up)
C-C motif chemokine 5: SPYSSDTTPCCFAYIARPLPRAHIKEYFYTSGKCSNPAVVFVTRKNRQVCANPEKKWVREYINSLEMS
B1: in the series with GPR75 (setting [9]), the “Ca2+ mobilization” value was “stimulation” and the “inositol triphosphate (IP3)” value is listed as “increase”.
